Laboratory results from publication PMC2033597, “The Arg-Gly-Asp-containing peptide, rhodostomin, inhibits in vitro cell adhesion to extracellular matrices and platelet aggregation caused by saos-2 human osteosarcoma cells” (British Journal of Cancer, 1995).
Read-outs that look alike come from different tables or passages of the source.

Columns and labels:
[1] = tested on: Saos-2 tumour cell-induced platelet aggregation in heparinised human platelet-rich plasma; type: cell-based; conditions: for IC50: heparinised human PRP preincubated with peptide at 37C for 2 min, then Saos-2 cells, n = 6, read-out: IC50 for inhibition of Saos-2 TCIPA
Description: Brils JownW d Canmer (15) 71, 265-270 ? 1995 S9okon Press Al rghts reserved 0007-0920/95 $9.00 V The Arg-Gly-Asp-containing peptide, rhodostomin, inhibits in vitro cell adhesion to extracellular matrices and platelet aggregation caused by Saos-2 human osteosarcoma cells H-S Chiang', R-S Yang2 and T-F Huang' 'Pharmacological Institute and 'Department of Orthopaedics, College of Medicine, National Taiwan UniversitY, Taipei, Taiwan. Sumary Saos-2 cells, derived from a primary human osteosarcoma, caused dose-dependent platelet aggrega- tion in heparinised human platelet-rich plasma. […] The cell suspension shortened the plasma recalcification times of normal, factor VIII-deficient and factor IX-deficient human plasmas in a dose- dependent manner. […] Moreover, a monoclonal antibody (MAb) against human tissue factor completely abolished TCIPA. […] Keywords: osteosarcoma; platelet aggregation; tissue factor: integrin; extracellular matrix: Arg-Gly-Asp- containing peptide The formation of a metastatic lesion is the result of a com- plex series of events called the 'metastatic cascade'. Following intravasation, circulating tumour cells interact with a variety of host cells such as effectors of the cellular immune res- ponses, endothelial cells and platelets. The interaction of tumour cells and host platelets may promote the metastatic process (Honn et al., 1992). Indeed, there is evidence that the incidence of lymph node metastasis caused by ten cell lines, from rat renal carcinoma, in vivo correlates well with their ability to induce platelet aggregation in vitro (Pearlstein et al., 1980). Platelets may enhance tumour cell adhesion to endothelial cells and subendothelial surfaces during the haematogenous metastasis process. The cell-cell or cell-extracellular matrix (ECM) interactions of both normal and tumour cells have been proven to be mediated by a variety of plasma memb- rane receptors including the integrin family (Hynes et al., 1987). Integrins are transmembrane proteins which link the ECM with the cell cytoskeleton. Such linkage enables cellular attachment to substrata and forms focal adhesion plaques in distinct plasma membrane regions which establish contact with the matrix (Grunicke, 1990). […] Purified components from snake venoms have been widely studied and found to affect platelet function, including trigramin-like anti-platelet peptides (Huang et al., 1987a, 1991a,b; Shebuski et al., 1989; Rucinski et al., 1990). Trigra- min, an RGD-containing peptide purified from venom of the Trimeresurus gramineus snake, is a specific antagonist of platelet membrane […] (Huang et al., 1987a, 1989). […] These peptides all contain the RGD sequence, are rich in cysteine and bind with high affinity to the surface of platelets. The in vitro metastatic characterisation of osteosarcoma is not yet well understood. In the present study, we examined in vitro the TCIPA caused by Saos-2 human osteosarcoma cells. We probed Saos-2 TCIPA with a variety of inhibitors and monoclonal antibodies in order to characterise fully the mechanism of this phenomenon. […] Materals and metbods Materials Saos-2 human osteosarcoma cells were obtained from ATCC (American Type Culture Collection) Laboratory. Crude venom of Agkistrodon rhodostoma (or Calloselasma rhodos- toma) was purchased from Latoxan (Rosans, France) and stored at -20?C. Rhodostomin was purified from venom of A. rhodostoma as previously described (Huang et al., 1989, 1990). GRGDS was purchased from Peninsula Laboratories, CA, USA. Gly-Arg-Gly-Glu-Ser (GRGES) was synthesised by the Biochemical Institute, College of Medicine, National Taiwan University. Apyrase (grade III), heparin, hirudin (grade IV from leeches), fibronectin (from bovine plasma), vitronectin (from human plasma), laminin (from basement membrane of mouse sarcoma), collagen type I (from calf skin) and type IV were obtained from Sigma (St Louis, MO, USA). Tissue thromboplastin reagent was Simplastin Excel standard (Organon Teknika, NC, USA). […]

[2] = tested on: Saos-2 cell adhesion to RGD-dependent ECM; assay: Saos-2 cell adhesion to RGD-dependent ECM (overall); type: cell-based, human; conditions: fibronectin, vitronectin, collagen type I
Description: Brils JownW d Canmer (15) 71, 265-270 ? 1995 S9okon Press Al rghts reserved 0007-0920/95 $9.00 V The Arg-Gly-Asp-containing peptide, rhodostomin, inhibits in vitro cell adhesion to extracellular matrices and platelet aggregation caused by Saos-2 human osteosarcoma cells H-S Chiang', R-S Yang2 and T-F Huang' 'Pharmacological Institute and 'Department of Orthopaedics, College of Medicine, National Taiwan UniversitY, Taipei, Taiwan. Sumary Saos-2 cells, derived from a primary human osteosarcoma, caused dose-dependent platelet aggrega- tion in heparinised human platelet-rich plasma. […] The cell suspension shortened the plasma recalcification times of normal, factor VIII-deficient and factor IX-deficient human plasmas in a dose- dependent manner. […] Moreover, a monoclonal antibody (MAb) against human tissue factor completely abolished TCIPA. […] Keywords: osteosarcoma; platelet aggregation; tissue factor: integrin; extracellular matrix: Arg-Gly-Asp- containing peptide The formation of a metastatic lesion is the result of a com- plex series of events called the 'metastatic cascade'. Following intravasation, circulating tumour cells interact with a variety of host cells such as effectors of the cellular immune res- ponses, endothelial cells and platelets. The interaction of tumour cells and host platelets may promote the metastatic process (Honn et al., 1992). […]

rhodostomin
IC50 [1]: 0.03 µM
Potency relative to GRGDS in inhibiting TCIPA, on a molar basis ([1]; ratio of IC50 values): about 18 000 fold
Inhibition of Saos-2 TCIPA ([1]; rhodostomin, pretreatment of platelets): complely inhibited
Potency relative to GRGDS in inhibiting Saos-2 cell adhesion to RGD-dependent ECM, on a molar basis [2]: ~1000 fold

apyrase
Inhibition of Saos-2 TCIPA ([1]; apyrase 0.5 U ml-1 final concentration in PRP, preincubated at 37C for 2 min): did not inhibit
Lag phase preceding TCIPA ([1]; apyrase 0.5 U ml-1 in PRP): prolonged

Gly-Arg-Gly-Glu-Ser [GRGES, peptide synthesised by the Biochemical Institute, National Taiwan University]
Inhibition of Saos-2 TCIPA ([1]; GRGES 1 mg ml-1, pretreatment of platelets): no significant effect

hirudin
Inhibition of Saos-2 TCIPA ([1]; hirudin 5 U ml-1, PRP preincubated at 37C for 2 min): completely inhibited

heparin
Lag phase preceding platelet aggregation ([1]; heparin raised from 1 to 6 units ml-1 (data not shown)): markedly prolonged

N=C(N)NCCC[C@H](NC(=O)CN)C(=O)NCC(=O)N[C@@H](CC(=O)O)C(=O)N[C@@H](CO)C(=O)O [GRGDS, Gly-Arg-Gly-Asp-Ser]
IC50 [1]: 560 µM
